According to publication PMC10590383, “Repurposing conformational changes in ANL superfamily enzymes to rapidly generate biosensors for organic and amino acids” (Nature Communications, 2023):

Key:
[1] = target: T1, GECFINDER-Leu2 (Aneurinibacillus migulanus, UniProt P0C061, A301G/I277L/T278L); test: Fluorescence dose-response of purified binding-pocket-engineered sensors (0.75 uM) in 100 mM Tris-HCl pH 7.5, room temperature, 1 mM ATP, 2.5 mM MgCl2, excitation 460 or 480 nm, emission 510 nm; logistic five-parameter fit.; format: biochemical; settings: n = 3
T1 construct: gene grsA
T1 sequence (P0C061 1-617 I277L/T278L/A301G): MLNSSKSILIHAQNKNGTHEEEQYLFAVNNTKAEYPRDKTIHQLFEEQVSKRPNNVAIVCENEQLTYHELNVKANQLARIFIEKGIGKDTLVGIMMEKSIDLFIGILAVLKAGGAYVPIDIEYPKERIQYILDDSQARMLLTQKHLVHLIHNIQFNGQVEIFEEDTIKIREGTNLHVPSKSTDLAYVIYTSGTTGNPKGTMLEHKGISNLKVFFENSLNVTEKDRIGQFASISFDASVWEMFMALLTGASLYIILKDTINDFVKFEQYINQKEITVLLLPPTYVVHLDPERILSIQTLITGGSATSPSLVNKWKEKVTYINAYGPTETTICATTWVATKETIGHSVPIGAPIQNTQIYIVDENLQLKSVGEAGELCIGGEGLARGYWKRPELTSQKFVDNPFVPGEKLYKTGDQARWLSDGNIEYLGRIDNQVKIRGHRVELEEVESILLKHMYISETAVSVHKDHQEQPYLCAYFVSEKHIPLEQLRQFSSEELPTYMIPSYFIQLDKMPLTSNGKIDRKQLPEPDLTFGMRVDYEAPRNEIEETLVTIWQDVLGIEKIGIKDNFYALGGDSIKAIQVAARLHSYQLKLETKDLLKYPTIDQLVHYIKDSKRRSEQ
Method: (§1) Fig. 4 Engineering ligand specificity of GrsA-PheA for generating […]s. a The selectivity-conferring code of Phe and Leu A domains. b–f Dose–response curve of purified […]s with increasing concentrations of ligands in 100 mM Tris-HCl buffer (pH=7.5). All data shown are means ± S.D. (n = 3 biologically independent samples). g A series of […] reactions was tested to show the […]’s specificity with 20 proteinogenic amino acids. The values on the heatmap represent the ΔF/F0 value normalized to each […]’s maximal ΔF/F0 value ((ΔF/F0)/maximal ΔF/F0). The concentrations of 20 amino acids were 100 μM. The color indicates the average value of three independent biological replicates after 15 min. All data shown are means ± S.D. (n = 3 biologically independent samples). Source data are provided as a Source data file.
(§2) The study conducted dose–response curve, substrate specificity, and fluorescent spectrum analyses in 100-mM Tris buffer (pH = 7.5), while pH stability experiments were performed in 100-mM Tris buffer at three different pH values (6.5, 7.5, and 8.5) at room temperature. […] protein at a concentration of 0.75 μM, various small molecule concentrations, 1 mM ATP, and 2.5 mM MgCl2 were used in the experiments. Fluorescent signals were detected using a Microplate Reader (Synergy H4, Bio Tek) at an excitation/emission wavelength of 460 nm/510 nm or 480 nm/510 nm. The dose-response curve was determined immediately after the addition of the analyte. The total duration of the measurement was 15 min, with readings taken at one-minute intervals. The dose-response curve was plotted using the fluorescence values obtained after achieving stability in the fluorescence signal. The dose-response curves were fitted using the logistic model LOGISTIC5 available in Origin 2021, which could provide a more adequate fit to asymmetric dose-response data[62],[63]. Excitation spectra were scanned from 300 to 540 nm with a step size of 5 nm, and the emission wavelength was set to 560 nm. Emission spectra were scanned from 470 to 700 nm with a step size of 5 nm, and the excitation wavelength was set to 450 nm. The thermal stability of […] was analyzed using the UNcle multifunctional protein stability analysis system. Measurements were performed in 20 mM MOPS buffer with 2 mM DTT at a sample concentration of 1 mg/mL. Absolute fluorescence quantum yields were measured using an absolute photoluminescence quantum yield spectrometer (FS5, Edinburgh).

[2] = target: T2, GECFINDER-Leu1 (Aneurinibacillus migulanus, UniProt P0C061, A301G/T278M); test: as above; format: biochemical; settings: n = 3
T2 construct: gene grsA; GrsA-PheA-PCP
T2 sequence (P0C061 1-617 T278M/A301G): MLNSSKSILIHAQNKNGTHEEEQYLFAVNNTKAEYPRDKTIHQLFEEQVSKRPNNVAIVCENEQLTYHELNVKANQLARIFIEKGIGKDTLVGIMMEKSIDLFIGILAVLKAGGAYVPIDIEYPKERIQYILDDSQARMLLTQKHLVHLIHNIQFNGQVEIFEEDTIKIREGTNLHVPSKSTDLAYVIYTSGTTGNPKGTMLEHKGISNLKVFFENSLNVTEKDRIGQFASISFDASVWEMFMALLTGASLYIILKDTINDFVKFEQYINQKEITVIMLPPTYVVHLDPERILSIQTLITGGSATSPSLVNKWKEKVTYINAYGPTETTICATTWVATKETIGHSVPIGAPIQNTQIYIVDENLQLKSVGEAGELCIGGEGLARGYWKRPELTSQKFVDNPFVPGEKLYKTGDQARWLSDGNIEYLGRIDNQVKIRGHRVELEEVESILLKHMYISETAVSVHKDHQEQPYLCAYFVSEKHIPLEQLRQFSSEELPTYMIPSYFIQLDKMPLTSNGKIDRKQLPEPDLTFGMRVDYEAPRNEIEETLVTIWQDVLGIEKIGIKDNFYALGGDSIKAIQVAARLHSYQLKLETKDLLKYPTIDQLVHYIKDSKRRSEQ
Method: as §1, §2

[3] = target: T3, GECFINDER-Leu3 (Aneurinibacillus migulanus, UniProt P0C061, A301G/S447N/T278L); test: as above; format: biochemical; settings: n = 3
T3 construct: gene grsA
T3 sequence (P0C061 1-617 T278L/A301G/S447N): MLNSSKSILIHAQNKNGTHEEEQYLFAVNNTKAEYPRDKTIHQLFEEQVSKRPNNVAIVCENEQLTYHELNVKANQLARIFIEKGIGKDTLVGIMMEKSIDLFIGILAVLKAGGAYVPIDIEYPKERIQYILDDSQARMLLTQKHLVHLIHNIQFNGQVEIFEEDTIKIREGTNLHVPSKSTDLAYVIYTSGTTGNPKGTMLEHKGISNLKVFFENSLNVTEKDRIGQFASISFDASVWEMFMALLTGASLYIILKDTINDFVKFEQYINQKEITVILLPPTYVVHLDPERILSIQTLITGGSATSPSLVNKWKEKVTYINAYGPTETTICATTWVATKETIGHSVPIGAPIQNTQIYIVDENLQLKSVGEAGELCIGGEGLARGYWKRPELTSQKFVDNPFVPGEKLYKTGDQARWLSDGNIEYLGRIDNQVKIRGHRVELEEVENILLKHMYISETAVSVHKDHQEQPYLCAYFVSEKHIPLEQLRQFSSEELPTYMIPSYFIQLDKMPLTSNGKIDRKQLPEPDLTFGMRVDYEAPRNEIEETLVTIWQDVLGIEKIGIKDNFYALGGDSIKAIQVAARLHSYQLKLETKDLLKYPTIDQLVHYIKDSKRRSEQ
Method: as §1, §2

[4] = target: T4, GECFINDER-Leu4 (Aneurinibacillus migulanus, UniProt P0C061, A301G/I277L/S447N/T278L); test: as above; format: biochemical; settings: n = 3
T4 construct: gene grsA
T4 sequence (P0C061 1-617 I277L/T278L/A301G/S447N): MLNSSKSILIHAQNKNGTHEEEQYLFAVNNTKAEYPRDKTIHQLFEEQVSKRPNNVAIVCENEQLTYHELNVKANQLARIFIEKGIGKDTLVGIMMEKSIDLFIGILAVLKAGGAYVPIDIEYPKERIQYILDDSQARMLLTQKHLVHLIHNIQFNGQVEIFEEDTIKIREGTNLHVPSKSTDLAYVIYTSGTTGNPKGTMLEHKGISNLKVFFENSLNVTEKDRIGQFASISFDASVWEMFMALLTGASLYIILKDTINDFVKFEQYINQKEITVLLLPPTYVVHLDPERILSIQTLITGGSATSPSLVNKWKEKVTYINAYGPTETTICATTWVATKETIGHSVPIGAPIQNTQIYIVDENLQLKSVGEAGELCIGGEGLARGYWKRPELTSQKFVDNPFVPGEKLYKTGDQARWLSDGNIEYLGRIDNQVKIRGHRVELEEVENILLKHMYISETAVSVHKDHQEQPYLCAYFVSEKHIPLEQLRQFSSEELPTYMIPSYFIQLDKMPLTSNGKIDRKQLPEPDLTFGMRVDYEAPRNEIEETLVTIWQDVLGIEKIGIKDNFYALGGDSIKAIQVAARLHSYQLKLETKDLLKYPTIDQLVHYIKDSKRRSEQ
Method: as §1, §2

[5] = test system: At4CL2; settings: ATP Km of At4CL2, homolog of Nt4CL2; cited from earlier work
[6] = target: T5, GECFINDER-ATP (Bacillus subtilis, UniProt P39845); test: Fluorescence dose-response of purified […]-ATP with ATP as the varied ligand (10 nM to 2 mM), 100 mM Tris pH 7.5, room temperature, excitation/emission 480/510 nm.; format: biochemical; settings: n = 3
T5 construct: gene ppsA; PpsA-GluA A domain; LE-cpEGFP-TR inserted between Asp425 and Asp426 in hinge A
T5 sequence (P39845 434-960): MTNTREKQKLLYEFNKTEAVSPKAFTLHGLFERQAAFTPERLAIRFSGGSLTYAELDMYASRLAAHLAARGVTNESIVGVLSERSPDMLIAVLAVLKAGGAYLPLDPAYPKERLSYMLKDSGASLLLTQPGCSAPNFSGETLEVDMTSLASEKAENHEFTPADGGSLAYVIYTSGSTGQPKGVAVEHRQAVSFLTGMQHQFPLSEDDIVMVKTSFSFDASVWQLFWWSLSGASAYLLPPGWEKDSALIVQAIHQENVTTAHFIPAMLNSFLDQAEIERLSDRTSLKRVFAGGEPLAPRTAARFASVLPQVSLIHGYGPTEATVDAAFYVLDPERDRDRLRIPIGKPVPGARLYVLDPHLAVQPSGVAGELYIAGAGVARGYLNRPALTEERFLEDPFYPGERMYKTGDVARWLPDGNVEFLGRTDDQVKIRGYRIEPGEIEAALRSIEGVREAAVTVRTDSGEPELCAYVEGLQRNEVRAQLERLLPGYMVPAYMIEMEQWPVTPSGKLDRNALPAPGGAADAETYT
Method: as §2, with “Excitation spectra were scanned from 300 to 540 nm with a step size of 5 nm, and the emission wavelength was set to 560 nm. Emission spectra were scanned from 470 to 700 nm with a step size of 5 nm, and the excitation wavelength was set to 450 nm.” left out, “Measurements were performed in 20 mM MOPS buffer with 2 mM DTT at a sample concentration of 1 mg/mL.” left out, “Edinburgh). […]” for “Edinburgh).”

[7] = Dependence of […]s on Mg2+ and ATP (fluorescence intensity); format: biochemical; settings: ATP +
Description: Ligand specificity is an important biosensors feature. Generally, the NRPS A domains have high specificity for their substrates because they are the first “gatekeeper” of NRPSs and ensure that the correct monomers are activated and thioesterified[32],[33]. […] Twenty proteinogenic amino acids were used to test the ligand specificity of […]s. […] We also investigated the dependence of […]s on Mg^2+ and ATP (Supplementary Fig. 4).
Supplementary Fig. 4 Dependence of GEC FINDER s on Mg2+ and ATP . a-j, Fluore scence intensities of
GECF IN DERs in the absence of any substra te, in the pre sence of Mg2+ alone, ATP alone, both Mg2+ and ATP, Mg2+
and ATP with re spective substra tes. Mg2+ concentra tion was 2.5 mM, and ATP concentra tion was 1 mM. a, 100 μM
data are provided as a Source Data file.

[8] = test system: GrsA-Phe A domain; settings: Km for ATP of GrsA-Phe A domain; cited from earlier work

## CC(C)C[C@H](N)C(=O)O [Leu, leucine]
[1]
  EC50: 207 ± 37.2 µM
[2]
  EC50: 58.4 ± 24.8 µM
[3]
  EC50: 200 ± 7.76 µM
[4]
  EC50: 106 ± 24.5 µM

## Nc1ncnc2c1ncn2[C@@H]1O[C@H](COP(=O)(O)OP(=O)(O)OP(=O)(O)O)[C@@H](O)[C@H]1O [ATP, adenosine triphosphate]
[5]
  Km: 163 µM
[6]
  EC50: 69.3 ± 4.69 µM
[7]; Supplementary Fig. 4 a, Mg+ +, 4-coumaric acid -
  fluorescence intensity, AVE of 3 repeats: 2171.67
[7]; Supplementary Fig. 4 a, Mg+ -, 4-coumaric acid -
  fluorescence intensity, AVE of 3 repeats: 2266.67
[7]; Supplementary Fig. 4 b, Mg+ +, phenylalanine -
  fluorescence intensity, AVE of 3 repeats: 9194
[7]; Supplementary Fig. 4 b, Mg+ -, phenylalanine -
  fluorescence intensity, AVE of 3 repeats: 7173.67
[7]; Supplementary Fig. 4 c, Mg+ +, glutamine -
  fluorescence intensity, AVE of 3 repeats: 17330.3
[7]; Supplementary Fig. 4 c, Mg+ -, glutamine -
  fluorescence intensity, AVE of 3 repeats: 17083
[7]; Supplementary Fig. 4 e, Mg+ +, isoleucine -
  fluorescence intensity, AVE of 3 repeats: 12985
[7]; Supplementary Fig. 4 e, Mg+ -, isoleucine -
  fluorescence intensity, AVE of 3 repeats: 12174.7
[7]; Supplementary Fig. 4 f, Mg+ +, histidine -
  fluorescence intensity, AVE of 3 repeats: 25974
[7]; Supplementary Fig. 4 f, Mg+ -, histidine -
  fluorescence intensity, AVE of 3 repeats: 26138.3
[7]; Supplementary Fig. 4 g, Mg+ +, leucine -
  fluorescence intensity, AVE of 3 repeats: 7346.67
[7]; Supplementary Fig. 4 g, Mg+ -, leucine -
  fluorescence intensity, AVE of 3 repeats: 6910.33
[7]; Supplementary Fig. 4 i, Mg+ +, tyrosine -
  fluorescence intensity, AVE of 3 repeats: 5938.67
[7]; Supplementary Fig. 4 i, Mg+ -, tyrosine -
  fluorescence intensity, AVE of 3 repeats: 5712
[7]; Supplementary Fig. 4 j, Mg+ +, phenylalanine -
  fluorescence intensity, AVE of 3 repeats: 7465
[7]; Supplementary Fig. 4 j, Mg+ -, phenylalanine -
  fluorescence intensity, AVE of 3 repeats: 7633
[7]; Supplementary Fig. 4 h, Mg+ +, S-β-phenylalanine -
  fluorescence intensity, AVE of 3 repeats: 5374.33
[7]; Supplementary Fig. 4 h, Mg+ -, S-β-phenylalanine -
  fluorescence intensity, AVE of 3 repeats: 5014
[7]; Supplementary Fig. 4 d, Mg+ +, proline -
  fluorescence intensity, AVE of 3 repeats: 50889
[7]; Supplementary Fig. 4 d, Mg+ -, proline -
  fluorescence intensity, AVE of 3 repeats: 46119
[8]
  Km: 150 µM
